The assay concerns Ciliary muscle cells (rCSMCs) isolated from rat's eyes. In words: cGMP content in rat ciliary muscle cells, isolated compounds (ELISA). The format is cell-based. Particulars: compounds 0.01, 0.05, 0.1, 1 μg/mL, 15 minutes. The method, then:
Ciliary muscle cells ([…]) isolated from rat's eyes were dispensed into 6 wells at 5×10^5 cells/well and stabilized for one day. After stabilization, 3-isobuytyl-1-methylxanthine (1 mM) was pre-treated for 10 minutes, and then luteolin-7-O-diglucuronide and apigenin-7-O-diglucuronide compounds isolated from the Perilla frutescens (L.) Britton var. acuta (Thunb.) Kudo leaf extract were reacted for 15 minutes at concentrations of 0.01, 0.05, 0.1, and 1 μg/mL. The cGMP contents of these compounds were measured using an ELISA kit.

As for `O=C(O)[C@H]1O[C@@H](O[C@H]2[C@H](Oc3cc(O)c4c(=O)cc(-c5ccc(O)cc5)oc4c3)O[C@H](C(=O)O)[C@@H](O)[C@@H]2O)[C@H](O)[C@@H](O)[C@@H]1O` [apigenin-7-O-diglucuronide], the cGMP content result is “increasing the cGMP content”.

Turning to luteolin-7-O-diglucuronide, the cGMP content result is reported as “increasing the cGMP content”.

For the origin of these results see US20210260145A1, “PHARMACEUTICAL COMPOSITION FOR ALLEVIATING EYE FATIGUE, CONTAINING, AS ACTIVE INGREDIENTS, LUTEOLIN-7-O-DIGLUCURONIDE AND APIGENIN-7-O-DIGLUCURONIDE ISOLATED FROM PERILLA FRUTESCENS (L.) BRITTON VAR. ACUTA (THUNB.) KUDO LEAF EXTRACT” (JEONNAM BIOINDUSTRY FOUNDATION, priority 2018, published 2021).
